Experimental findings from patent US9149038B2, “4-amino-6-(heterocyclic)picolinates and 6-amino-2-(heterocyclic)pyrimidine-4-carboxylates and their use as herbicides” (Dow AgroSciences LLC, priority 2013, dated 2015) are described below.

The assay relates to Key Broadleaf and Grass Weed as well as Crop Species. The assay can be described thus: Post-Emergent Test I: postemergent herbicidal activity, visual phytotoxicity rating 10 days after treatment (Table 5). It is filed as in vivo. Conditions: for Visual Growth Reduction (%) 10 Days After Application ECHCG: barnyardgrass (Echinochloa crus-galli); for pest or weed control at 4000 g/ha / pest or weed control at 3960 g/ha: post-emergence, 240 h, 10 days after application. Here is the method: Herbicidal evaluations were made visually on a scale of 0 to 100 where 0 represents no activity and 100 represents complete plant death. Post-Emergent Test I: Seeds of test species were obtained from commercial suppliers and planted into a 5″-round pot containing soil-less media mix (Metro-Mix 360®, Sun Gro Horticulture). Postemergence treatments were planted 8-12 days (d) prior to application and cultured in a greenhouse equipped with supplemental light sources to provide a 16 h photoperiod at 24-29° C. All pots were surface irrigated. Approximately 10 milligrams (mg) of each compound were dissolved in 1.3 mL acetone-DMSO (97:3, volume per volume (v/v)) and diluted with 4.1 mL water-isopropanol-crop oil concentrate (78:20:2, v/v/v) containing 0.02% Triton X-155. Treatments were serial diluted with the above formulation solvent to provide 1.85, 0.926, 0.462 and 0.231 milligrams per milliliter (mg/mL) of test compound delivered in 2.7 mL/pot (roughly equivalent to 4.0, 2.0, 1.0, and 0.5 kg/ha, respectively). Formulated compounds were applied using a DeVilbiss® compressed air sprayer at 2-4 pounds per square inch (psi). Following treatment, pots were returned to the greenhouse for the duration of the experiment. All pots were sub-irrigated as needed to provide optimum growing conditions. All pots were fertilized one time per week by subirrigating with Peters Peat-Lite Special® fertilizer (20-10-20). Phytotoxicity ratings were obtained 10 days after treatment postemergence applications. All evaluations were made visually on a scale of 0 to 100 where 0 represents no activity and 100 represents complete plant death and are presented as indicated in Table 4.

[1] abbreviates: giant foxtail (Setaria faberi), 4 kg ai/ha, read-out: Visual Growth Reduction (%) 10 Days After Application SETFA.
[2] abbreviates: ivyleaf morningglory (Ipomoea hederecea), 4 kg ai/ha, read-out: Visual Growth Reduction (%) 10 Days After Application IPOHE.
Setting [3] is: sunflower (Helianthus annuus), 4 kg ai/ha, read-out: Visual Growth Reduction (%) 10 Days After Application HELAN.
The mark [4] stands for this setting: wild oats (Avena fatua), 4 kg ai/ha, read-out: Visual Growth Reduction (%) 10 Days After Application AVEFA.
Where [5] appears, read: giant foxtail (Setaria faberi), 3.96 kg ai/ha, read-out: Visual Growth Reduction (%) 10 Days After Application SETFA.
Where [6] appears, read: ivyleaf morningglory (Ipomoea hederecea), 3.96 kg ai/ha, read-out: Visual Growth Reduction (%) 10 Days After Application IPOHE.
The mark [7] stands for this setting: sunflower (Helianthus annuus), 3.96 kg ai/ha, read-out: Visual Growth Reduction (%) 10 Days After Application HELAN.
[8] abbreviates: wild oats (Avena fatua), 3.96 kg ai/ha, read-out: Visual Growth Reduction (%) 10 Days After Application AVEFA.

Like-named read-outs stand apart in the source and are kept apart here.

`Nc1c(Cl)c(C(=O)O)nc(-c2cc3c(cc2F)OC(F)(F)O3)c1Cl` [Compound 3]: for the setting “4 kg ai/ha”, the “Visual Growth Reduction (%) 10 Days After Application ECHCG” value is “C (75-84)”. The pest or weed control at 4000 g/ha fell in the range of 75 to 84% under setting [1], 75 to 84% under setting [2], 75 to 84% under setting [3] and 75 to 84% under setting [4].
Regarding `Nc1c(F)c(-c2cccc3c2OC(F)(F)O3)nc(C(=O)O)c1Cl` [Compound 74], the pest or weed control at 3960 g/ha under setting [5] fell in the range of 0 to 29%, the pest or weed control at 3960 g/ha under setting [6] lay in the range of 60 to 74%, the pest or weed control at 3960 g/ha under setting [7] lay in the range of 95 to 100% and the pest or weed control at 3960 g/ha under setting [8] fell in the range of 0 to 29%.
As for `COC(=O)c1nc(-c2cccc3c2OC(F)(F)O3)c(F)c(N)c1Cl` [Compound 73], the “Visual Growth Reduction (%) 10 Days After Application ECHCG” value (3.96 kg ai/ha) is reported as “G (0-29)”. The pest or weed control at 3960 g/ha under setting [5] is 0 to 29%, the pest or weed control at 3960 g/ha under setting [6] was in the range of 75 to 84%, the pest or weed control at 3960 g/ha under setting [7] was 95 to 100% and the pest or weed control at 3960 g/ha under setting [8] was in the range of 0 to 29%.
Take `Nc1c(F)c(-c2cccc3c2OCO3)nc(C(=O)O)c1Cl` [Compound 72, 4-Amino-6-(benzo[d][1,3]dioxol-4-yl)-3-chloro-5-fluoropicolinic acid]: the “Visual Growth Reduction (%) 10 Days After Application ECHCG” value (4 kg ai/ha) was “G (0-29)”. Moreover, the pest or weed control at 4000 g/ha under setting [1] was in the range of 0 to 29%, the pest or weed control at 4000 g/ha under setting [2] is 0 to 29%, the pest or weed control at 4000 g/ha under setting [3] was in the range of 95 to 100% and the pest or weed control at 4000 g/ha under setting [4] is 0 to 29%.
Consider `Nc1c(Cl)c(C(=O)O)nc(-c2ccc3c(c2F)OC(F)(F)O3)c1Cl` [Compound 5], for which, for the setting “4 kg ai/ha”, the “Visual Growth Reduction (%) 10 Days After Application ECHCG” value is “G (0-29)”. Moreover, the pest or weed control at 4000 g/ha reads like this: under setting [1], 75 to 84%; under setting [2], 95 to 100%; under setting [3], 95 to 100%; under setting [4], 0 to 29%.
